By EC50 is commonly meant the concentration that produces a half-maximal response.

EC50 data for 32 compounds are collected here from patent US20090226398A1, “ANTI-VIRAL COMPOUNDS, COMPOSITIONS, AND METHODS OF USE” (Genelabs Technologies, Inc., priority 2008, published 2009).

Bounds are passed on as bounds.

This experiment has as its system HCV replication. The experiment in a line: Replicon Assay (Huh-lucubineo-ET cells, luciferase readout). It is filed as cell-based. The settings on record: Hepatitis C virus; ET (Huh-lucubineo-ET) HCV replicon cell line; luciferase activity 48-72 hours after compound addition; 6 dilutions. In a few lines:
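Huh-lucubineo-ET cells stably carrying a firefly luciferase-ubiquitin-neo/NS3-5B ET replicon (adaptive mutations E1202G, T1280I, K1846T) were plated 24 h before compound, then treated at 5 or 50 μM or six 3-fold dilutions. Luciferase read 48-72 h later; % inhibition vs no-compound control, EC50/TC50 from Hill-equation fit.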
A general note: Replicon systems follow genome replication, usually without infectious particles.
In turn, `COc1ccc(-c2ccc(Cn3cc4nc(-c5cccc(F)c5F)nc-4cn3)nc2O)c(C(F)(F)F)c1` [Compound 359, 6-[2-(2,3-Difluoro-phenyl)-imidazo[4,5-d]pyridazin-5-ylmethyl]-3-(4-methoxy-2-trifluoromethyl-phenyl)-pyridin-2-ol] returned an EC50 of 2.23 µM.
`Cc1ccc(-c2ccc(Cn3cc4nc(-c5cccc(F)c5F)nc-4cn3)nc2)c(C(F)(F)F)c1` [Compound 239, 2-(2,3-Difluoro-phenyl)-5-[5-(4-methyl-2-trifluoromethyl-phenyl)-pyridin-2-ylmethyl]-5H-imidazo[4,5-d]pyridazine] came in with an EC50 of 0.063 µM.
In the case of `COc1cccc(-c2ccc(Cn3cc4nc(-c5cccc(F)c5F)nc-4cn3)nn2)c1` [Compound 218, 2-(2,3-Difluoro-phenyl)-5-[6-(3-methoxy-phenyl)-pyridazin-3-ylmethyl]-5H-imidazo[4,5-d]pyridazine] it was at least 50 µM; in that of `Fc1ccccc1-c1nc2cnn(Cc3ccc(Cl)cc3)cc-2n1` [Compound 102, 5-(4-Chloro-benzyl)-2-(2-fluoro-phenyl)-5H-imidazo[4,5-d]pyridazine], at least 50 µM.
As for `CCCOc1ccc(-c2ccc(Cn3cc4nc(-c5cccc(F)c5F)nc-4cn3)cn2)cc1` [Compound 245, 2-(2,3-Difluoro-phenyl)-5-[6-(4-propoxy-phenyl)-pyridin-3-ylmethyl]-5H-imidazo[4,5-d]pyridazine], the EC50 was 8.35 µM.
In turn, `Fc1cccc(-c2nc3cnn(Cc4ccc(-c5ccc(-c6ccccc6)cc5C(F)(F)F)nn4)cc-3n2)c1F` [Compound 205, 2-(2,3-Difluoro-phenyl)-5-[6-(3-trifluoromethyl-biphenyl-4-yl)-pyridazin-3-ylmethyl]-5H-imidazo[4,5-d]pyridazine] showed an EC50 of 0.14 µM. Compared with the last compound, the EC50 is about 60-fold lower.
`COc1ccc(-c2ccc(Cn3cc4nc(-c5cccc(F)c5F)nc-4cn3)nn2)c(OC)c1` [Compound 207, 2-(2,3-Difluoro-phenyl)-5-[6-(2,4-dimethoxy-phenyl)-pyridazin-3-ylmethyl]-5H-imidazo[4,5-d]pyridazine]: the EC50 is at least 50 µM.
For `COc1ccc(-c2ccc(Cn3cc4nc(-c5cccc(F)c5F)nc-4cn3)c(OCCCO)c2)c(C(F)(F)F)c1` [Compound 348, 3-{4-[2-(2,3-Difluoro-phenyl)-imidazo[4,5-d]pyridazin-5-ylmethyl]-4′-methoxy-2′-trifluoromethyl-biphenyl-3-yloxy}-propan-1-ol], the EC50 is 0.279 µM.
For the compound `Fc1cccc(-c2nc3cnn(Cc4ccc(Br)cn4)cc-3n2)c1F` [Compound 262, 5-(5-bromo-pyridin-2-ylmethyl)-2-(2,3-difluoro-phenyl)-5H-imidazo[4,5-d]pyridazine], the EC50 is at least 50 µM.
In the case of `Fc1cccc(-c2nc3cnn(Cc4ccc(-n5cccn5)cc4)cc-3n2)c1F` [Compound 308, 2-(2,3-Difluoro-phenyl)-5-(4-pyrazol-1-yl-benzyl)-5H-imidazo[4,5-d]pyridazine], the EC50 is at least 50 µM.
Consider `Fc1cccc(-c2nc3cnn(Cc4ccc5occc5c4)cc-3n2)c1F` [Compound 283, 5-Benzofuran-5-ylmethyl-2-(2,3-difluoro-phenyl)-5H-imidazo[4,5-d]pyridazine], for which the EC50 is at least 50 µM.
Consider `CCCOc1ccc(-c2ccc(Cn3cc4nc(-c5ccccc5F)nc-4cn3)cn2)c(C(F)(F)F)c1` [Compound 323, 2-(2-Fluoro-phenyl)-5-[6-(4-propoxy-2-trifluoromethyl-phenyl)-pyridin-3-ylmethyl]-5H-imidazo[4,5-d]pyridazine], for which it took 0.033 µM to reach a half-maximal effect (EC50).
The compound `COc1cccc(-c2ccc(Cn3cc4nc(-c5cccc(F)c5F)nc-4cn3)nn2)c1OC` [Compound 202, 2-(2,3-Difluoro-phenyl)-5-[6-(2,3-dimethoxy-phenyl)-pyridazin-3-ylmethyl]-5H-imidazo[4,5-d]pyridazine] gave an EC50 of at least 50 µM.
The compound `Fc1cccc(-c2nc3cnn(Cc4ccc(-c5ccc(C(F)(F)F)cc5)cc4)cc-3n2)c1F` [Compound 225, 2-(2,3-Difluoro-phenyl)-5-(4′-trifluoromethyl-biphenyl-4-ylmethyl)-5H-imidazo[4,5-d]pyridazine] yielded an EC50 of 13.7 µM.
As to `Oc1nc(-c2ccc(C(F)(F)F)cc2C(F)(F)F)ccc1Cn1cc2nc(-c3cccc(F)c3F)nc-2cn1` [Compound 361, 6-(2,4-Bis-trifluoromethyl-phenyl)-3-[2-(2,3-difluoro-phenyl)-imidazo[4,5-d]pyridazin-5-ylmethyl]-pyridin-2-ol], the EC50 amounted to 13.7 µM. In other words, the double-digit micromolar range.
In turn, `[O-][n+]1cc(Cn2cc3nc(-c4cccc(F)c4F)nc-3cn2)ccc1-c1ccc(C(F)(F)F)cc1C(F)(F)F` [Compound 345, 5-[6-(2,4-Bis-trifluoromethyl-phenyl)-1-oxy-pyridin-3-ylmethyl]-2-(2,3-difluoro-phenyl)-5H-imidazo[4,5-d]pyridazine] gave an EC50 of 0.08 µM.
For `Fc1cccc(-c2nc3cnn(Cc4ccc5ncccc5c4)cc-3n2)c1F` [Compound 302, 6-[2-(2,3-Difluoro-phenyl)-imidazo[4,5-d]pyridazin-5-ylmethyl]-quinoline], the EC50 was at least 50 µM.
The compound `Fc1cccc(-c2nc3cnn(Cc4cccc(-c5ccncc5)c4)cc-3n2)c1F` [Compound 301, 2-(2,3-Difluoro-phenyl)-5-(3-pyridin-4-yl-benzyl)-5H-imidazo[4,5-d]pyridazine] had a half-maximal effective concentration (EC50) of 35 µM. That is a double-digit micromolar value.
As to `CCCCc1ccc(-c2ccc(Cn3cc4nc(-c5cccc(F)c5F)nc-4cn3)nn2)cc1` [Compound 115, 5-[6-(4-Butyl-phenyl)-pyridazin-3-ylmethyl]-2-(2,3-difluoro-phenyl)-5H-imidazo[4,5-d]pyridazine], the EC50 was 1.47 µM.
For the compound `Fc1cccc(-c2nc3cnn(Cc4ccc(-c5ccc(C(F)(F)F)cc5Cl)nc4)cc-3n2)c1F` [Compound 237, 5-[6-(2-Chloro-4-trifluoromethyl-phenyl)-pyridin-3-ylmethyl]-2-(2,3-difluoro-phenyl)-5H-imidazo[4,5-d]pyridazine], the EC50 was 0.119 µM.
Compound `COc1ccc(-c2ccc(Cn3cc4nc(-c5cccc(F)c5F)nc-4cn3)c(OCCCN3CCOCC3)c2)c(C(F)(F)F)c1` [Compound 349, 2-(2,3-Difluoro-phenyl)-5-[4′-methoxy-3-(3-morpholin-4-yl-propoxy)-2′-trifluoromethyl-biphenyl-4-ylmethyl]-5H-imidazo[4,5-d]pyridazine] yielded an EC50 of 6.26 µM.
As for `COc1ccc(-c2ccc(Cn3cc4nc(-c5ccccc5F)nc-4cn3)cn2)c(C(F)(F)F)c1` [Compound 212, 2-(2-Fluoro-phenyl)-5-[6-(4-methoxy-2-trifluoromethyl-phenyl)-pyridin-3-ylmethyl]-5H-imidazo[4,5-d]pyridazine], it took 0.081 µM to reach a half-maximal effect (EC50). Against the preceding compound, the EC50 is about 77-fold lower.
The compound `Fc1cccc(-c2nc3cnn(Cc4ccc(C(F)(F)F)cc4C(F)(F)F)cc-3n2)c1F` [Compound 263, 5-(2,4-Bis-trifluoromethyl-benzyl)-2-(2,3-difluoro-phenyl)-5H-imidazo[4,5-d]pyridazine] returned an EC50 of at least 50 µM.
Turning to `COc1ccc(-c2ccc(Cn3cc4nc(-c5cccc(F)c5F)nc-4cn3)cc2N)c(C(F)(F)F)c1` [Compound 356, 4-[2-(2,3-Difluoro-phenyl)-imidazo[4,5-d]pyridazin-5-ylmethyl]-4′-methoxy-2′-trifluoromethyl-biphenyl-2-ylamine], a half-maximal effect (EC50) was put at 0.1 µM.
Take `Fc1cccc(-c2nc3cnn(Cc4ccc(-c5ccc(OCC6CCOC6)cc5C(F)(F)F)nn4)cc-3n2)c1F` (centres unmarked) [Compound 326, 2-(2,3-Difluoro-phenyl)-5-{6-[4-(tetrahydro-furan-3-ylmethoxy)-2-trifluoromethyl-phenyl]-pyridazin-3-ylmethyl}-5H-imidazo[4,5-d]pyridazine]: the EC50 was found to be 1.68 µM.
For the compound `Fc1cccc(-c2nc3cnn(CCCCc4ccc(C(F)(F)F)cc4C(F)(F)F)cc-3n2)c1F` [Compound 269, 5-[4-(2,4-Bis-trifluoromethyl-phenyl)-butyl]-2-(2,3-difluoro-phenyl)-5H-imidazo[4,5-d]pyridazine], a half-maximal response (EC50) required 25 µM. This EC50 is about 15-fold higher than that of the compound before.
As for `Fc1cccc(-c2nc3cnn(Cc4ccc(-c5ccccc5C(F)(F)F)nc4)cc-3n2)c1F` [Compound 250, 2-(2,3-Difluoro-phenyl)-5-[6-(2-trifluoromethyl-phenyl)-pyridin-3-ylmethyl]-5H-imidazo[4,5-d]pyridazine], the 50% effective concentration (EC50) was at least 50 µM.
The same measure for `N#Cc1cc(C(F)(F)F)ccc1-c1ccc(Cn2cc3nc(-c4cccc(F)c4F)nc-3cn2)cn1` [Compound 340, 2-{5-[2-(2,3-Difluoro-phenyl)-imidazo[4,5-d]pyridazin-5-ylmethyl]-pyridin-2-yl}-5-trifluoromethyl-benzonitrile]: 0.095 µM; for `CC(C)(C)OCc1ccc(-c2ccc(Cn3cc4nc(-c5cccc(F)c5F)nc-4cn3)nn2)cc1` [Compound 214, 5-[6-(4-tert-Butoxymethyl-phenyl)-pyridazin-3-ylmethyl]-2-(2,3-difluoro-phenyl)-5H-imidazo[4,5-d]pyridazine]: 47.4 µM.
For `COc1ccc(-c2ccc(Cn3cc4nc(-c5cccc(F)c5F)nc-4cn3)c(N)c2)c(C(F)(F)F)c1` [Compound 334, 4-[2-(2,3-Difluoro-phenyl)-imidazo[4,5-d]pyridazin-5-ylmethyl]-4′-methoxy-2′-trifluoromethyl-biphenyl-3-ylamine], the EC50 is 0.02 µM.
As to `O=[N+]([O-])c1ccc(-c2ccc(Cn3cc4nc(-c5cccc(F)c5F)nc-4cn3)cn2)c(C(F)(F)F)c1` [Compound 285, 2-(2,3-Difluoro-phenyl)-5-[6-(4-nitro-2-trifluoromethyl-phenyl)-pyridin-3-ylmethyl]-5H-imidazo[4,5-d]pyridazine], the EC50 came to 0.284 µM.
For `Fc1cccc(-c2nc3cnn(Cc4ccc(-c5ccc(OCC6CCOCC6)cc5C(F)(F)F)nn4)cc-3n2)c1F` [Compound 320, 2-(2,3-Difluoro-phenyl)-5-{6-[4-(tetrahydro-pyran-4-ylmethoxy)-2-trifluoromethyl-phenyl]-pyridazin-3-ylmethyl}-5H-imidazo[4,5-d]pyridazine], the midpoint of the response, the EC50, lay at 1.71 µM. This EC50 lies about 6-fold higher than the previous one.
